{"source": "paper PMC6156508", "about": "“GA-Hecate antiviral properties on HCV whole cycle represent a new antiviral class and open the door for the development of broad spectrum antivirals” (Scientific Reports, 2018)", "key": {"[1]": {"system": "HCV subgenomic replicon SGR-Feo-JFH-1 (genotype 2a)", "experiment": "HCV subgenomic replicon replication, luciferase assay (genotype 2a)", "assay_type": "cell-based, hepatitis C virus", "excerpt": "(§1) Figure 2 Hecate and its derivative-peptide effects on subgenomic HCV genotype 2a replication and hepatotoxicity. (A) Hecate. (B) Lys- Hecate. (C) GA-Hecate. (D) GA2-Hecate. (E) Acetyl-Hecate. (F) Glu-Hecate. Luciferase assays report HCV replication and MTT assays report the viability of Huh-7.5 cells harboring SGR-JFH-1 Feo under peptide treatment. Water was used as a negative control of virus replication inhibition and cell death (Control (−)), and Cyclosporine A was used as a positive control for virus replication inhibition (Control (+)). Red dotted lines represent the arbitrary threshold of 80% cell viability, and blue dotted lines represent the maximum inhibition presented by Hecate at the maximum safe concentration. Bars represent triplicates of the three independent assays. ***P < 0.01 vs control (−).\nCell lines harboring subgenomic or genomic replicons were seeded at 5 × 10^3 cells /well on 96-well plates and the compounds were added 24 h post-seeding, in a concentration range between 2.5–20 μM. After 48 h of treatment, the cells were disrupted with 30 μL of passive lysis buffer (Promega, Madison, WI, USA), and luciferase substrate (Promega, Madison, WI, USA) was automatically added to each sample. Luciferase activity was measured using a luminometer (FLUOstar Omega/BMG LABTECH, Offenburg, BW, DE). The same assays were performed in Huh-7.5 cell lines harboring SGR-JFH1 Feo, S52/SG-neo or FL-J6/JFH-50C19Rluc2AUbi. Cyclosporine A (Sigma-Aldrich) at 1 μM was used as positive control of viral replication inhibition and dH2O as negative control.\n(§2) GA-Hecate toxicity and viral inhibition profile in 24, 48 and 72h post-treatment in […]\n(§3) GA-Hecate toxicity and viral inhibition capacity were evaluated at 24, 48 and 72h post-treatment. Tested concentrations were 1.25; 2.5; 5; 10; 20; and 40 µM. At the end of every incubation, cells were stained using MTT as previously described. Similarly, at every time point, treated cells were lysed using PLB and summited to Luminescence analysis as previously described. […]"}, "[2]": {"system": "Huh-7.5 cells harboring SGR-JFH-1 Feo", "experiment": "MTT cytotoxicity in hepatocytes", "assay_type": "cell-based, human", "excerpt": "as §1\nPeptide cytotoxicity profiles were measured by the MTT [3-(4,5-dimethylthiazol- 2-yl)-2,5-diphenyl tetrazolium bromide] (Sigma–Aldrich) method. Twenty-four hours before treatment, 5 × 10^3 SGR-harboring cell lines (SGR-Feo-JFH-1 or S52/SG-neo) were cultured with supplemented DMEM in a 96-multi-well plate and incubated at 37 °C in a humidified 5% CO2 incubator. On the subsequent day, peptide-containing medium was added at the following final concentrations: 2.5, 5, 10 and 20 μM. The tested peptides were Hecate and its derivatives, which included the following: lysine addition (Lysine-Hecate/Lys-Hecate); one or two molecules of Gallic Acid (GA-Hecate and GA2-Hecate); one acetyl radical (Acetyl-Hecate) or Glutamic acid (Glu-Hecate). After 48 h of incubation, peptide-media was removed, and MTT at a final concentration of 1 mg/mL was added to the wells, incubated for 30 minutes and subsequently replaced by 100 μL of DMSO. Absorbance was measured at 562 nm, using a plate spectrophotometer (FLUOstar Omega/BMG LABTECH, Offenburg, BW, DE). Cell viability was calculated considering water-treated cells (peptides diluent) as a negative control. All experiments were performed in triplicate and in three independent replicates. Further assays were performed considering at least 80% viability of the treated cells.\nas §2, §3"}, "[3]": {"system": "lipid droplets in HCVcc-infected Huh-7.5 cells", "experiment": "Intracellular distribution and quantity of neutral lipids (Bodipy 493/503)", "assay_type": "cell-based, human", "details": "20 μM; 48 h; HCV-infected Huh-7.5", "excerpt": "Figure 7 GA-Hecate effect on lipid droplets. (A) Pattern of lipid droplet distribution on treated and non-treated HCV-infected Huh-7.5 cells and the lipid droplets relative quantification. Blue: DAPI staining nuclei; Green: lipid droplets stained by Bodipy 493/503; Red: HCV NS5A represented by Alexa fluor-594. (B) Light Scattering Dynamic showing synthetic unilamellar vesicle size with lipid droplet constitution after treatment with the following: I. Water (negative control of size change); II. Triton-X 100 (positive control of size change); III. Hecate; IV. GA-Hecate.\nTo evaluate the GA-Hecate effect on the intracellular neutral lipid distribution, the GA-Hecate-treated cells at maximum non-cytotoxic concentration (20 μM) were evaluated 48 h post-treatment. For this purpose, 2 × 10^4 Huh-7.5 cells that were infected with HCVcc were seeded in a 24-well plate 24 h […] the treatment. On the following day, GA-Hecate or water (peptide diluent) were added in the plate and incubated for 48 h. […] To quantify the intracellular lipid content, two - four photos/well were performed and the fluorescence intensity was measured by ImageJ software. Bodipy fluorescence was normalized with DAPI fluorescence."}}, "note": "Where two headings read alike, the source gives them in different places. Where a SMILES comes first, the peptide text is derived from it. The star is where a group is joined. Galloyl = O=C(c1cc(O)c(O)c(O)c1)*", "data": [{"compound": "CC(C)C[C@H](NC(=O)[C@H](C)NC(=O)[C@H](CCCCN)NC(=O)[C@H](CCCCN)NC(=O)[C@H](CC(C)C)NC(=O)[C@H](C)NC(=O)[C@H](CCCCN)NC(=O)[C@H](CCCCN)NC(=O)[C@H](CC(C)C)NC(=O)[C@H](CCCCN)NC(=O)[C@H](CCCCN)NC(=O)[C@H](CC(C)C)NC(=O)[C@H](C)NC(=O)[C@H](CCCCN)NC(=O)[C@H](CCCCN)NC(=O)[C@H](CC(C)C)NC(=O)[C@H](C)NC(=O)[C@H](CCCCN)NC(=O)[C@H](CC(C)C)NC(=O)[C@H](C)NC(=O)[C@H](CC(C)C)NC(=O)[C@H](C)NC(=O)[C@H](Cc1ccccc1)NC(=O)c1cc(O)c(O)c(O)c1)C(N)=O", "note": "[GA-Hecate] (Galloyl-FALALKALKKALKKLKKALKKAL-NH2)", "values": [{"measurement": "inhibition of viral replication", "setting": "[1]; 1.25 µM, 72 h", "value": "about 50%"}, {"measurement": "SI (selectivity index), ratio CC50/EC50", "setting": "[1]; 48 h, genotype 2a replicon", "value": 3.13}, {"measurement": "SI 72 h post-treatment", "setting": "[1]; 72 h", "value": 5}, {"measurement": "EC50", "setting": "[1]; Huh-7.5 harbouring SGR-Feo-JFH-1 genotype 2a, 48 h treatment, 2.5-20 μM, luciferase, triplicate in three independent assays, read-out: EC50 (50% effective concentration for HCV)", "value": 11.2, "unit": "µM"}, {"measurement": "EC50", "setting": "[1]; SGR-Feo JFH-1, 72 h, 1.25-40 µM, read-out: EC50 72 h post-treatment (IC50 in the supplement)", "value": 3.8, "unit": "µM"}, {"measurement": "inhibition of HCV replication at the maximum safe concentration", "setting": "[1]; genotype 2a replicon, 48 h, at each peptide's maximum safe concentration (Hecate 10 μM; Lys-, Glu-, Acetyl-Hecate 5 μM)", "value": "approximately 80%"}, {"measurement": "cell toxicity", "setting": "[2]; 1.25 µM, 72 h", "value": "no cell toxicity"}, {"measurement": "cell death", "setting": "[2]; 20 μM", "value": 20, "unit": "%"}, {"measurement": "CC50 (50% cytotoxic concentration)", "setting": "[2]; 48 h incubation, SGR-Feo-JFH-1 Huh-7.5 cells, triplicate in three independent assays", "value": 34.95, "unit": "µM"}, {"measurement": "CC50 72 h post-treatment", "setting": "[2]; 72 h, 1.25-40 µM", "value": 19, "unit": "µM"}, {"measurement": "maximum non-toxic (safe) concentration in hepatocytes", "setting": "[2]; arbitrary threshold of 80% cell viability, 48 h", "value": 20, "unit": "µM"}, {"measurement": "effect on lipid droplets distribution and quantity", "setting": "[3]", "value": "altered the lipid droplets distribution and reduced its quantity"}]}]}
